From publication PMC8162404, “Proteomimetic surface fragments distinguish targets by function” (Chemical Science, 2020) come the findings set out here.

In experiment [1] the target is T1, CaM (Bos taurus, UniProt P62157).
T1 construct: made in house; host or cells: E. coli BL21 (DE3)
The experiment in a line: Competition pull-down with native ligand TRPV1-Ct15. It counts as binding, bovine. Conditions: H14 library; competitor peptide 200 µM; read-out: Surface mapping KD (apparent), competition.

Experiment [2] deals with T1, CaM. The experiment in a line: Pull-down assay with immobilized protein and LSM libraries. Particulars: H14 library; 1:2 stoichiometry assumed; read-out: Surface mapping KD (apparent). It counts as binding, bovine. In outline: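 CaM buffer was 20 mM HEPES pH 7.4, 150 mM NaCl, 5 mM CaCl2. LSM sublibrary members ([…]) incubated 30 min, RT, with equimolar His-tagged protein on Co-NTA resin. HPLC-MS measured unbound probes; bound fraction relative to resin-only background gave dissociation constants.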

Experiment [3] has as its target T2, Gal-1 (Homo sapiens, UniProt P09382).
T2 construct: made in house; host or cells: E. coli BL21(DE3)
The description is as above. It counts as binding. Conditions: H14 library; 1:1 binding assumed; read-out: Surface mapping KD (apparent). Summed up:
(§1)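 Buffers were HEPES pH 7.4 with 150 mM NaCl, plus 1 mM TCEP and 1 mM CaCl2 (50 mM HEPES) for S100A4 and S100B, 1 mM TCEP for Gal-1, and no additive for RecQ-WH. Immobilized protein at 64 µM was equilibrated 30 min with the LSM sublibrary, and unbound probes were measured by LC-MS.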

The target of experiment [4] is T2, Gal-1. The experiment in a line: Competition pull-down with lactose. Conditions: H14 library; lactose 10 mM; read-out: Surface mapping KD (apparent), competition. Format: binding. The procedure:
Interactions between the H14 helical LSMs and the targets were abundant, but safe recognition of the native PPI interfaces on the targets is a criterion of druggability. To gain insight into the ability of the LSMs to detect orthosteric spots, we carried out pull-down assays in the presence of the native ligands (Table 2) of the targets (Fig. 5). For highlighting the effect of the competitor on the binding fingerprints, KD ratios and the LSM replacement percentages were calculated and are represented as heat maps (see ESI, Fig. S7 ^†). […] This could be explained by the glycan selective native recognition domain of the protein. We note that the replacement pattern for a single probe can, in theory, be complex. […] Moreover, a single probe can bind to both orthosteric and non-orthosteric spots, which limits overall displacement levels. To avoid overlooking interesting orthosteric weak binders, direct replacement levels were assessed (see ESI, Fig. S7 ^†).
Pull-down assay and data analysis
Pull-down assay. LSM sublibraries were screened separately as previously described.(2) Experiments were performed in the following buffers: (i) 20 mM pH 7.4 HEPES, 150 mM NaCl, 5 mM CaCl2 for CaM; (ii) 50 mM pH 7.4 HEPES, 150 mM NaCl, 1 mM TCEP, 1 mM CaCl2 for S100 proteins; (iii) 20 mM pH 7.4 HEPES, 150 mM NaCl, 1 mM TCEP for Gal-1 and (iv) 20 mM pH 7.4 HEPES, 150 mM NaCl for RecQ-WH. Assays were performed in paper filter spin cups (Thermo Scientific) with sample volumes of 100 µl. Hexahistidine-tagged proteins were immobilized on previously washed Co-NTA resin (TALON, Takara Bio USA, Inc., Mountain View, CA) in 64 µM final concentration. LSM sublibrary was added, in which each of the 64 library members were used at a concentration of 1 µM. Samples were incubated at room temperature for 30 min with shaking at 100 rpm. Then, samples were centrifuged at 1000 rpm for 2 min and washed with 100 µl pull-down buffer to remove unbound compounds.
The control experiments were performed using the same compounds and the resin but without the immobilized protein. In case of competitive assays, competitor peptides were added to LSM sublibrary samples in 200 µM final concentration. In the case of Gal-1, lactose (competitor) was used in a concentration of 10 mM. Experiments were performed at least twice. Mean […]
LC-MS methods and parameters. HPLC/ESI-MS analysis was used to characterize the samples from the pull-down assay. LC-MS analysis was performed with a Thermo Scientific Dionex UltiMate 3000 HPLC system interfaced to an LTQ ion trap mass spectrometer (Thermo Electron Corp., San Jose, CA, USA). Samples were injected onto an Aeris Widepore XB-C18 (250 x 4.6 mm) analytical HPLC column using gradient elution 5-80 % solution B during 25 minutes. For pull-down samples, eluent composition was 0.1% acetic acid in distilled water (Solution A) and 0.1% acetic acid in acetonitrile (solution B). Mass spectra were acquired in full scan mode from 200 to 2000 m/z range. For overlapping peaks, selective reaction monitoring (SRM) was […]
MS data analysis. Thermo Xcalibur 2.2 software was used for peak identification and integration. The majority of the foldameric fragments could be resolved independently via HPLC-MS/MS measurements based on molecular weight, MS fragmentation pattern and retention time. Peaks of some foldamers with β3-hIle or β3-hLeu in position R2 could not be resolved, these were integrated and averaged. In the processing method, each sample component was associated to a chromatographic peak based on previously identified mass (m/z) and retention time (ref (2) and Table S7-10). Using ICIS peak detection algorithm, the general detection and integration criteria were: smoothing points: 5, baseline window: 80, area noise factor: 5, peak noise factor: 10. Using these processing setups, all raw data files were reprocessed together and analyzed. Errors in peak identification during the automatic processing were corrected manually.
Calculation of the discussed parameters […]

A further experiment has as its target T3, S100B (Homo sapiens, UniProt P04271).
T3 construct: made in house; host or cells: Escherichia coli BL21(DE3)
T3 sequence (P04271 1-92): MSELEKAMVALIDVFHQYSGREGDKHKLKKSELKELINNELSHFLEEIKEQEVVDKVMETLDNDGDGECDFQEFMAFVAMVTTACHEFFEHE
Description: Pull-down assay with immobilized protein and LSM libraries. Particulars: H14 library; 1:1 binding assumed; read-out: Surface mapping KD (apparent). It counts as binding. Summed up: as §1

T2 sequence (P09382 whole entry): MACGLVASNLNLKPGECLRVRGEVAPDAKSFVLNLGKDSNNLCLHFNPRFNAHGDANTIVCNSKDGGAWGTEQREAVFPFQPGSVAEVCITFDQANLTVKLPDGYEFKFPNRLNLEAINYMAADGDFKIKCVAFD

Regarding `CC(C)[C@@H](CC(=O)N[C@H]1CCCC[C@@H]1C(N)=O)NC(=O)[C@H]1CCCC[C@@H]1NC(=O)[C@H]1CCCC[C@@H]1NC(=O)C[C@H](CCC(N)=O)NC(=O)[C@H]1CCCC[C@@H]1N` [H14 QV], the Kd worked out at 229 µM at CaM [1], 94 µM at CaM [2], 349 µM at Gal-1 [3] and 372 µM at Gal-1 [4].
Consider `NC(=O)C[C@@H](CC(=O)N[C@H]1CCCC[C@@H]1C(=O)N[C@H]1CCCC[C@@H]1C(=O)N[C@H](CC(=O)N[C@H]1CCCC[C@@H]1C(N)=O)Cc1c[nH]c2ccccc12)NC(=O)[C@H]1CCCC[C@@H]1N` [H14 NW], for which the Kd on CaM [1] is 269 µM; at CaM [2], 38 µM; on Gal-1 [3], 169 µM; on S100B, 98 µM; at Gal-1 [4], 185 µM.
Turning to `NC(=O)CC[C@@H](CC(=O)N[C@H]1CCCC[C@@H]1C(N)=O)NC(=O)[C@H]1CCCC[C@@H]1NC(=O)[C@H]1CCCC[C@@H]1NC(=O)C[C@H](CCC(N)=O)NC(=O)[C@H]1CCCC[C@@H]1N` [H14 QQ], the Kd on CaM [1] was determined as 295 µM; at CaM [2], 186 µM; at Gal-1 [3] it was 273 µM; at Gal-1 [4] it was 467 µM.
For `C[C@@H](O)[C@@H](CC(=O)N[C@H]1CCCC[C@@H]1C(=O)N[C@H]1CCCC[C@@H]1C(=O)N[C@@H](CC(=O)O)CC(=O)N[C@H]1CCCC[C@@H]1C(N)=O)NC(=O)[C@H]1CCCC[C@@H]1N` [H14 TD], in that order: 232 µM, 314 µM, 326 µM and 415 µM.
As for `C[C@@H](O)[C@@H](CC(=O)N[C@H]1CCCC[C@@H]1C(=O)N[C@H]1CCCC[C@@H]1C(=O)N[C@@H](CCC(=O)O)CC(=O)N[C@H]1CCCC[C@@H]1C(N)=O)NC(=O)[C@H]1CCCC[C@@H]1N` [H14 TE], the Kd at CaM [1] was found to be 281 µM; at CaM [2] it was 285 µM; at Gal-1 [3], 244 µM; at Gal-1 [4] it was 366 µM.
For `C[C@@H](CC(=O)N[C@H]1CCCC[C@@H]1C(N)=O)NC(=O)[C@H]1CCCC[C@@H]1NC(=O)[C@H]1CCCC[C@@H]1NC(=O)C[C@H](CO)NC(=O)[C@H]1CCCC[C@@H]1N` [H14 SA], in that order: 362 µM, 384 µM, 389 µM and 432 µM.
Regarding `NC(=O)CC[C@@H](CC(=O)N[C@H]1CCCC[C@@H]1C(=O)N[C@H]1CCCC[C@@H]1C(=O)N[C@@H](CCC(=O)O)CC(=O)N[C@H]1CCCC[C@@H]1C(N)=O)NC(=O)[C@H]1CCCC[C@@H]1N` [H14 QE], the Kd on CaM [1] was 246 µM; at CaM [2], 221 µM; on Gal-1 [3], 295 µM; on Gal-1 [4], 380 µM.
Consider `C[C@@H](O)[C@@H](CC(=O)N[C@H]1CCCC[C@@H]1C(=O)N[C@H]1CCCC[C@@H]1C(=O)N[C@H](CC(=O)N[C@H]1CCCC[C@@H]1C(N)=O)Cc1ccc(O)cc1)NC(=O)[C@H]1CCCC[C@@H]1N` [H14 TY], for which the Kd on CaM [1] was 226 µM; on CaM [2], 84 µM; on Gal-1 [3], 297 µM; on S100B, 180 µM; on Gal-1 [4], 338 µM.
In the case of `CSCC[C@@H](CC(=O)N[C@H]1CCCC[C@@H]1C(N)=O)NC(=O)[C@H]1CCCC[C@@H]1NC(=O)[C@H]1CCCC[C@@H]1NC(=O)C[C@H](CC(N)=O)NC(=O)[C@H]1CCCC[C@@H]1N` [H14 NM], the Kd at CaM [1] came out at 452 µM; on CaM [2], 50 µM; on Gal-1 [3], 350 µM; at Gal-1 [4], 406 µM.
Turning to `NCCCC[C@@H](CC(=O)N[C@H]1CCCC[C@@H]1C(N)=O)NC(=O)[C@H]1CCCC[C@@H]1NC(=O)[C@H]1CCCC[C@@H]1NC(=O)C[C@H](CC(N)=O)NC(=O)[C@H]1CCCC[C@@H]1N` [H14 NK], the Kd came out at 254 µM on CaM [1], 82 µM on CaM [2], 270 µM on S100B and 342 µM at Gal-1 [4].
Take `CC(C)[C@@H](CC(=O)N[C@H]1CCCC[C@@H]1C(N)=O)NC(=O)[C@H]1CCCC[C@@H]1NC(=O)[C@H]1CCCC[C@@H]1NC(=O)C[C@@H](NC(=O)[C@H]1CCCC[C@@H]1N)[C@@H](C)O` [H14 TV]: the Kd at CaM [1] came out at 376 µM; at CaM [2], 113 µM; at Gal-1 [3], 399 µM; at Gal-1 [4], 424 µM.
Regarding `C[C@@H](O)[C@@H](CC(=O)N[C@H]1CCCC[C@@H]1C(N)=O)NC(=O)[C@H]1CCCC[C@@H]1NC(=O)[C@H]1CCCC[C@@H]1NC(=O)C[C@H](CC(N)=O)NC(=O)[C@H]1CCCC[C@@H]1N` [H14 NT], the Kd on CaM [1] was found to be 336 µM; on CaM [2], 187 µM; on Gal-1 [3] it was 350 µM; on Gal-1 [4], 500 µM.
For `C[C@@H](O)[C@@H](CC(=O)N[C@H]1CCCC[C@@H]1C(=O)N[C@H]1CCCC[C@@H]1C(=O)N[C@@H](CO)CC(=O)N[C@H]1CCCC[C@@H]1C(N)=O)NC(=O)[C@H]1CCCC[C@@H]1N` [H14 TS], in that order: 487 µM, 71 µM, 408 µM and 390 µM.
For `NC(=O)C[C@@H](CC(=O)N[C@H]1CCCC[C@@H]1C(=O)N[C@H]1CCCC[C@@H]1C(=O)N[C@@H](CO)CC(=O)N[C@H]1CCCC[C@@H]1C(N)=O)NC(=O)[C@H]1CCCC[C@@H]1N` [H14 NS], in that order: 279 µM, 184 µM, 310 µM and 427 µM.
For `C[C@@H](O)[C@@H](CC(=O)N[C@H]1CCCC[C@@H]1C(N)=O)NC(=O)[C@H]1CCCC[C@@H]1NC(=O)[C@H]1CCCC[C@@H]1NC(=O)C[C@@H](NC(=O)[C@H]1CCCC[C@@H]1N)[C@@H](C)O` [H14 TT], in that order: 416 µM, 253 µM, 366 µM and 431 µM.
For the compound `NC(=O)C[C@@H](CC(=O)N[C@H]1CCCC[C@@H]1C(=O)N[C@H]1CCCC[C@@H]1C(=O)N[C@@H](CC(=O)O)CC(=O)N[C@H]1CCCC[C@@H]1C(N)=O)NC(=O)[C@H]1CCCC[C@@H]1N` [H14 ND], the Kd worked out at 471 µM on CaM [1], 211 µM on CaM [2], 229 µM on Gal-1 [3] and 294 µM at Gal-1 [4].
